Reference: publication PMC5339874, “Fluorene-9-bisphenol is anti-oestrogenic and may cause adverse pregnancy outcomes in mice” (Nature Communications, 2017)

Tested on: CD-1 mice
Assay: Subchronic and reproductive toxicity tests
Procedure: Immature CD-1 mice (20 days old) were obtained from Experimental Animal Tech Co. of Weitonglihua (Beijing, China) and acclimatized in an experimental environment with a temperature of 22 °C±2 °C, relative humidity between 40 and 60%, and artificial lighting in a 12 h/12 h light-dark cycle. The animals were fed ad libitum with a basic diet from the Laboratory Animal Center of the Academy of Military Medical Sciences (Beijing, China), and drinking water was provided ad libitum. […] The animals were housed five to a cage until the pairing date. The treatment via oral gavage of each mouse was performed once every 3 days beginning on PND 24. The chemicals were dissolved in peanut oil to the appropriate concentrations. The volume of vehicle or chemical solutions administered was adjusted daily based on body weight measured during the dosing period according to the volume-body weight ratio of 5 ml kg^−1 bw. On PND 60, 10 females of each group were weighed and killed by cervical dislocation. The uteri, ovaries, livers, kidneys and spleens were weighed and collected for histological analysis. At the age of PND 77, males and females were paired. Each morning, the females were examined for the presence of vaginal plugs. Gestational day 1 was defined as the day on which a vaginal plug was found. In cases where pairing was unsuccessful, females were re-mated with proven males of the same group, except that females in the 1.2 mg kg^−1 TAM group were re-mated with proven males of the control group. After a 7-day mating period, the males were weighed and killed, and organs were weighed and collected for further analysis. Cauda epididymal sperm was collected from each mouse and observed under a trinocular microscope (Olympus BX53) in physiological saline. A microscopic video was recorded and analysed for sperm quality evaluation. The treatment via oral gavage was continued for the females until day 19 of pregnancy. On post-partum days 0 and 4, the weights of the dams and pups were recorded and the pups were checked for abnormalities. On post-partum day 4, the dams were weighed and killed, and their organs were weighed and collected for further analysis. The ovaries and uteri were examined for the numbers of corpora lutea and implantation sites, respectively. Finally, the non-pregnant and nulliparous females were killed for histopathological analysis. For histological examination, organs and tissues were fixed in formalin fixation, embedded in paraffin, and sectioned serially at 5 μm. Slides were stained with hematoxylin and eosin (H&E), and observed under a light microscope (Olympus BX53).

SMILES: Oc1ccc(C2(c3ccc(O)cc3)c3ccccc3-c3ccccc32)cc1 [BHPF, 9,9-bis(4-hydroxyphenyl)-fluorene]
- Absorption sites in the uterus of dams (0.4 mg kg^−1 3-d^−1 BHPF): 0.14±0.36
- Birth weight of pups (0.4 mg kg^−1 3-d^−1 BHPF): 1.66±0.21
- Body weight of female pups at PND 4 (0.4 mg kg^−1 3-d^−1 BHPF): 3.08±0.57
- Body weight of male pups at PND 4 (0.4 mg kg^−1 3-d^−1 BHPF): 3.30±0.56
- Implantation sites in the uterus of dams (0.4 mg kg^−1 3-d^−1 BHPF): 15.21±2.02
- Number of dams (0.4 mg kg^−1 3-d^−1 BHPF): 14
- Number of live pups per litter (0.4 mg kg^−1 3-d^−1 BHPF): 12.71±2.55
- weight gain of males from PND 30 (0.4 mg kg^−1 3-d^−1 BHPF): higher weight gain than the control
- non-pregnant females (0.4 mg kg^−1 bw 3-d^−1 BHPF): 1
- Absorption sites in the uterus of dams (2 mg kg^−1 3-d^−1 BHPF): 0.33±0.65
- Birth weight of pups (2 mg kg^−1 3-d^−1 BHPF): 1.59±0.24
- Body weight of female pups at PND 4 (2 mg kg^−1 3-d^−1 BHPF): 3.04±0.62
- Body weight of male pups at PND 4 (2 mg kg^−1 3-d^−1 BHPF): 3.18±0.59
- Implantation sites in the uterus of dams (2 mg kg^−1 3-d^−1 BHPF): 15.42±2.02
- Number of dams (2 mg kg^−1 3-d^−1 BHPF): 12
- Number of live pups per litter (2 mg kg^−1 3-d^−1 BHPF): 11.67±2.06
- non-pregnant females (2 mg kg^−1 bw 3-d^−1 BHPF): 3
- Absorption sites in the uterus of dams (10 mg kg^−1 3-d^−1 BHPF): 0.64±0.67
- Birth weight of pups (10 mg kg^−1 3-d^−1 BHPF): 1.54±0.18
- Body weight of female pups at PND 4 (10 mg kg^−1 3-d^−1 BHPF): 3.05±0.44
- Implantation sites in the uterus of dams (10 mg kg^−1 3-d^−1 BHPF): 16.09±1.81
- Number of dams (10 mg kg^−1 3-d^−1 BHPF): 11
- Number of live pups per litter (10 mg kg^−1 3-d^−1 BHPF): 12.73±1.85
- non-pregnant females (10 mg kg^−1 bw 3-d^−1 BHPF): 3
- fetal death (10 mg kg^−1 bw 3-d^−1 BHPF, a pregnant female): a dead fetus in late pregnancy was observed in the uterus
- Absorption sites in the uterus of dams (50 mg kg^−1 3-d^−1 BHPF): 1.09±1.38
- Birth weight of pups (50 mg kg^−1 3-d^−1 BHPF): 1.64±0.16
- Body weight of female pups at PND 4 (50 mg kg^−1 3-d^−1 BHPF): 3.20±0.53
- Body weight of male pups at PND 4 (50 mg kg^−1 3-d^−1 BHPF): 3.21±0.51
- Implantation sites in the uterus of dams (50 mg kg^−1 3-d^−1 BHPF): 14.45±2.42
- Number of dams (50 mg kg^−1 3-d^−1 BHPF): 11
- Number of live pups per litter (50 mg kg^−1 3-d^−1 BHPF): 10.27±2.53
- late abortion (50 mg kg^−1 bw 3-d^−1 BHPF): one case of late abortion
- maternal death (50 mg kg^−1 bw 3-d^−1 BHPF): one unexplained maternal death during parturition
- non-pregnant females (50 mg kg^−1 bw 3-d^−1 BHPF): 2
- weight gain before pairing (BHPF 0.4–50, TAM 1.2 mg kg^−1 bw 3-d^−1): no significant differences in weight gain
- doses causing adverse pregnancy outcomes (CD-1 mice): ≥ 2 mg kg^−1 bw 3-d^−1
- doses inducing atrophic endometria (CD-1 mice): ≥ 0.4 mg kg^−1 bw 3-d^−1
- pregnancy-related weight gain (all BHPF-treated groups): significantly decreased
- analysis of ovary sections (females at PND 60): retarded follicular development and reduced the numbers of corpora lutea
- histopathological examination of uteri (females at PND 60, 36-day exposure): serious atrophic endometria
- weights of the ovaries on both sides (females at PND 60, BHPF groups, 1.2 mg kg^−1 bw 3-d^−1 TAM): not affected
- doses significantly decreasing uterine weights and inducing atrophic endometria (intact female mice, oral gavage 36 days from PND 24): ≥ 2 mg kg^−1 3-d^−1
- sperm quality (males PND 84): No obvious adverse effects
- pathological examination of seminal vesicle (males PND 84, TAM 1.2, BHPF 50 mg kg^−1 bw 3-d^−1 group): one case of unilateral seminal vesicle atrophy
- histopathological examination of ovaries (non-pregnant females): haemorrhagic ovary cysts occurred
